# Assay results reported in EP4772186A1, “USE AND COMPOSITION OF POSTBIOTIC OF LACTOBACILLUS PARACASEI ET-22” (Inner Mongolia Yili Industrial Group Co., Ltd., priority 2023, dated 2025).
# Test system: biofilm
# Test: scanning electron microscopy (SEM) of biofilm on HA disc
# Assay type: cell-based, halitosis subjects (saliva)
# Conditions: pure components 100 µg/ml, others from 1.0×10^9 CFU/ml, 37°C 10 hours
# Protocol: (§1) Lysate group: A hydroxyapatite (HA) disc was placed in a 96-well plate. 10 µl of saliva was added to the 96-well plate, followed by separate addition of ET-22 viable bacteria (1.0×10^9 CFU/ml), ET-22 heat-inactivated bacterial cells (obtained by inactivating viable bacteria at 1.0×10^9 CFU/ml), and lysate (obtained by inactivating and filtering viable bacteria at 1.0×10^9 CFU/ml), each at 10 µl. Then, 80 µl of SHI medium was added. The 96-well plate was placed in an anaerobic box and cultured anaerobically at 37°C for 10 hours.
# as §1, with “NAD” for “Lysate”, “heat-inactivating” for “inactivating”, “NAD (100 µg/ml),” for “lysate (obtained by inactivating and filtering viable bacteria at 1.0×10^9 CFU/ml),”
# 2-hydroxy-3-phenylpropionic acid group: A hydroxyapatite (HA) disc was placed in a 96-well plate. 10 µl of saliva was added to the 96-well plate, followed by separate addition of ET-22 viable bacteria (1.0×10^9 CFU/ml), ET-22 heat-inactivated bacterial cells (obtained by heat-inactivating viable bacteria at 1.0×10^9 CFU/ml), and 2-hydroxy-3-phenylpropionic acid (100 µg/ml), each at 10 µl. […]
structure (smiles),measurement,value
O=C(O)C(O)Cc1ccccc1 (stereo not shown) [2-hydroxy-3-phenylpropionic acid],biofilm structure (SEM observation),"the number of bacterial cell layers decreases, and the biofilm becomes thinner"
